Measurements published in the supplement of paper PMC11451515.

What was measured:
Settings in all cases: 48 h
NOMO1 [1] = test: cell viability relative to DMSO control; higher = less cytotoxic
Method in brief: (§1)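 Leukemia cells (NOMO1 or SEM, 500 cells/well; P12-Ichikawa, 1000 cells/well) were seeded in 5 μl in 1536-well plates after at least four passages of adaptation to each medium. They received library compounds in DMSO by pin dosing, 11 threefold points from 47 μM to 0.79 nM. Luminescence with CellTiter-Glo One was read after 48 h at 37°C. Viability is stated per plate relative to DMSO wells, with cell-free wells as background.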

P12-Ichikawa [2] = test: as above
Method in brief: as §1

SEM cells [3] = test: as above
Method in brief: as §1

NOMO1 [4] = test: AUC of viability dose-response curve (% viability x log10 dose units); higher = less sensitive
Method in brief: (§2)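 Over 48 h at 37°C, leukemia cells in 1536-well plates (500 or 1000 cells/well), adapted to each medium, received library compounds in DMSO at 11 threefold doses from 47 μM to 0.79 nM. CellTiter-Glo One luminescence, normalised per plate to DMSO and cell-free wells, was fitted by a four-parameter log-logistic function of log10 dose. The area under the curve was then integrated by trapezoidal rule, after scaling curves above full viability and removing those that failed quality control.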

P12-Ichikawa [5] = test: as above
Method in brief: as §2

SEM cells [6] = test: as above
Method in brief: as §2

Nc1nc(N)c2nc(-c3cccc(O)c3)c(-c3cccc(O)c3)nc2n1
cell viability [%]
Settings | NOMO1 [1] | P12-Ichikawa [2] | SEM cells [3]
HPLM + 10% dialyzed FBS, 0.000781 µM | 124 | 117 | 110
HPLM + 10% dialyzed FBS, 0.00234 µM | 135 | 113 | 120
HPLM + 10% dialyzed FBS, 0.00702 µM | 110 | 113 | 120
HPLM + 10% dialyzed FBS, 0.0211 µM | 128 | 110 | 135
HPLM + 10% dialyzed FBS, 0.0632 µM | 116 | 120 | 111
HPLM + 10% dialyzed FBS, 0.19 µM | 126 | 117 | 125
HPLM + 10% dialyzed FBS, 0.569 µM | 123 | 94.6 | 104
HPLM + 10% dialyzed FBS, 1.71 µM | 108 | 89.9 | 106
HPLM + 10% dialyzed FBS, 5.12 µM | 79.6 | 81.2 | 94.5
HPLM + 10% dialyzed FBS, 15.4 µM | 47.8 | 72.2 | 35
HPLM + 10% dialyzed FBS, 46.1 µM | 17 | 55.2 | 8.06
RPMI 5 mM glucose + 10% FBS, 0.000781 µM | 106 | 108 | 124
RPMI 5 mM glucose + 10% FBS, 0.00234 µM | 115 | 117 | 125
RPMI 5 mM glucose + 10% FBS, 0.00702 µM | 102 | 113 | 125
RPMI 5 mM glucose + 10% FBS, 0.0211 µM | 116 | 109 | 129
RPMI 5 mM glucose + 10% FBS, 0.0632 µM | 112 | 122 | 103
RPMI 5 mM glucose + 10% FBS, 0.19 µM | 117 | 112 | 118
RPMI 5 mM glucose + 10% FBS, 0.569 µM | 105 | 118 | 120
RPMI 5 mM glucose + 10% FBS, 1.71 µM | 111 | 118 | 110
RPMI 5 mM glucose + 10% FBS, 5.12 µM | 91.6 | 101 | 108
RPMI 5 mM glucose + 10% FBS, 15.4 µM | 90.6 | 89 | 73.8
RPMI 5 mM glucose + 10% FBS, 46.1 µM | 4.68 | 28.1 | 13.8
RPMI 5 mM glucose + 10% dialyzed FBS, 0.000781 µM | 119 | 111 | 119
RPMI 5 mM glucose + 10% dialyzed FBS, 0.00234 µM | 106 | 116 | 99.4
RPMI 5 mM glucose + 10% dialyzed FBS, 0.00702 µM | 107 | 113 | 129
RPMI 5 mM glucose + 10% dialyzed FBS, 0.0211 µM | 112 | 123 | 106
RPMI 5 mM glucose + 10% dialyzed FBS, 0.0632 µM | 114 | 120 | 105
RPMI 5 mM glucose + 10% dialyzed FBS, 0.19 µM | 110 | 114 | 114
RPMI 5 mM glucose + 10% dialyzed FBS, 0.569 µM | 105 | 107 | 98.8
RPMI 5 mM glucose + 10% dialyzed FBS, 1.71 µM | 108 | 116 | 96.5
RPMI 5 mM glucose + 10% dialyzed FBS, 5.12 µM | 96.7 | 108 | 97.2
RPMI 5 mM glucose + 10% dialyzed FBS, 15.4 µM | 78.5 | 95.5 | 61
RPMI 5 mM glucose + 10% dialyzed FBS, 46.1 µM | 42.2 | 52.1 | 18.2

AUC of viability dose-response curve
Settings | NOMO1 [4] | P12-Ichikawa [5] | SEM cells [6]
HPLM + 10% dialyzed FBS | 402 | 409 | 409
RPMI 5 mM glucose + 10% FBS | 443 | 445 | 430
RPMI 5 mM glucose + 10% dialyzed FBS | 440 | 454 | 420

CNCc1ccc(-c2[nH]c3cc(F)cc4c3c2CCNC4=O)cc1
cell viability [%]
Settings | NOMO1 [1] | P12-Ichikawa [2] | SEM cells [3]
HPLM + 10% dialyzed FBS, 0.000781 µM | – | 109 | 101
HPLM + 10% dialyzed FBS, 0.00234 µM | – | 124 | 103
HPLM + 10% dialyzed FBS, 0.00702 µM | – | 121 | 126
HPLM + 10% dialyzed FBS, 0.0211 µM | – | 121 | 148
HPLM + 10% dialyzed FBS, 0.0632 µM | – | 124 | 122
HPLM + 10% dialyzed FBS, 0.19 µM | – | 126 | 118
HPLM + 10% dialyzed FBS, 0.569 µM | – | 130 | 117
HPLM + 10% dialyzed FBS, 1.71 µM | – | 119 | 133
HPLM + 10% dialyzed FBS, 5.12 µM | – | 122 | 155
HPLM + 10% dialyzed FBS, 15.4 µM | – | 123 | 141
HPLM + 10% dialyzed FBS, 46.1 µM | – | 119 | 109
RPMI 5 mM glucose + 10% FBS, 0.000781 µM | 111 | – | 106
RPMI 5 mM glucose + 10% FBS, 0.00234 µM | 117 | – | 118
RPMI 5 mM glucose + 10% FBS, 0.00702 µM | 126 | – | 128
RPMI 5 mM glucose + 10% FBS, 0.0211 µM | 147 | – | 123
RPMI 5 mM glucose + 10% FBS, 0.0632 µM | 133 | – | 134
RPMI 5 mM glucose + 10% FBS, 0.19 µM | 127 | – | 127
RPMI 5 mM glucose + 10% FBS, 0.569 µM | 128 | – | 143
RPMI 5 mM glucose + 10% FBS, 1.71 µM | 130 | – | 152
RPMI 5 mM glucose + 10% FBS, 5.12 µM | 120 | – | 163
RPMI 5 mM glucose + 10% FBS, 15.4 µM | 132 | – | 153
RPMI 5 mM glucose + 10% FBS, 46.1 µM | 125 | – | 128
RPMI 5 mM glucose + 10% dialyzed FBS, 0.000781 µM | 103 | – | 94.5
RPMI 5 mM glucose + 10% dialyzed FBS, 0.00234 µM | 120 | – | 110
RPMI 5 mM glucose + 10% dialyzed FBS, 0.00702 µM | 131 | – | 115
RPMI 5 mM glucose + 10% dialyzed FBS, 0.0211 µM | 155 | – | 115
RPMI 5 mM glucose + 10% dialyzed FBS, 0.0632 µM | 139 | – | 95.7
RPMI 5 mM glucose + 10% dialyzed FBS, 0.19 µM | 139 | – | 130
RPMI 5 mM glucose + 10% dialyzed FBS, 0.569 µM | 125 | – | 126
RPMI 5 mM glucose + 10% dialyzed FBS, 1.71 µM | 136 | – | 136
RPMI 5 mM glucose + 10% dialyzed FBS, 5.12 µM | 151 | – | 115
RPMI 5 mM glucose + 10% dialyzed FBS, 15.4 µM | 145 | – | 120
RPMI 5 mM glucose + 10% dialyzed FBS, 46.1 µM | 141 | – | 106

AUC of viability dose-response curve
Settings | NOMO1 [4] | P12-Ichikawa [5] | SEM cells [6]
HPLM + 10% dialyzed FBS | 474 | 470 | 439
RPMI 5 mM glucose + 10% FBS | 466 | 474 | 434
RPMI 5 mM glucose + 10% dialyzed FBS | 461 | 467 | 460

C[C@]12CC[C@H]3[C@@H](CCC/4=C/C(=O)CC[C@]34C)[C@@H]1CC[C@@H]2O
cell viability [%]
Settings | NOMO1 [1] | P12-Ichikawa [2] | SEM cells [3]
HPLM + 10% dialyzed FBS, 0.000781 µM | 93.4 | 111 | 94.2
HPLM + 10% dialyzed FBS, 0.00234 µM | 113 | 121 | 120
HPLM + 10% dialyzed FBS, 0.00702 µM | 126 | 121 | 124
HPLM + 10% dialyzed FBS, 0.0211 µM | 111 | 126 | 128
HPLM + 10% dialyzed FBS, 0.0632 µM | 136 | 128 | 118
HPLM + 10% dialyzed FBS, 0.19 µM | 126 | 124 | 139
HPLM + 10% dialyzed FBS, 0.569 µM | 123 | 128 | 122
HPLM + 10% dialyzed FBS, 1.71 µM | 111 | 132 | 120
HPLM + 10% dialyzed FBS, 5.12 µM | 130 | 126 | 136
HPLM + 10% dialyzed FBS, 15.4 µM | 127 | 125 | 125
HPLM + 10% dialyzed FBS, 46.1 µM | 137 | 127 | 130
RPMI 5 mM glucose + 10% FBS, 0.000781 µM | 109 | – | 107
RPMI 5 mM glucose + 10% FBS, 0.00234 µM | 118 | – | 110
RPMI 5 mM glucose + 10% FBS, 0.00702 µM | 134 | – | 118
RPMI 5 mM glucose + 10% FBS, 0.0211 µM | 143 | – | 112
RPMI 5 mM glucose + 10% FBS, 0.0632 µM | 146 | – | 139
RPMI 5 mM glucose + 10% FBS, 0.19 µM | 145 | – | 129
RPMI 5 mM glucose + 10% FBS, 0.569 µM | 129 | – | 118
RPMI 5 mM glucose + 10% FBS, 1.71 µM | 134 | – | 133
RPMI 5 mM glucose + 10% FBS, 5.12 µM | 147 | – | 140
RPMI 5 mM glucose + 10% FBS, 15.4 µM | 153 | – | 157
RPMI 5 mM glucose + 10% FBS, 46.1 µM | 147 | – | 109
RPMI 5 mM glucose + 10% dialyzed FBS, 0.000781 µM | 107 | – | 129
RPMI 5 mM glucose + 10% dialyzed FBS, 0.00234 µM | 121 | – | 113
RPMI 5 mM glucose + 10% dialyzed FBS, 0.00702 µM | 135 | – | 120
RPMI 5 mM glucose + 10% dialyzed FBS, 0.0211 µM | 137 | – | 121
RPMI 5 mM glucose + 10% dialyzed FBS, 0.0632 µM | 142 | – | 112
RPMI 5 mM glucose + 10% dialyzed FBS, 0.19 µM | 141 | – | 130
RPMI 5 mM glucose + 10% dialyzed FBS, 0.569 µM | 147 | – | 153
RPMI 5 mM glucose + 10% dialyzed FBS, 1.71 µM | 129 | – | 134
RPMI 5 mM glucose + 10% dialyzed FBS, 5.12 µM | 145 | – | 130
RPMI 5 mM glucose + 10% dialyzed FBS, 15.4 µM | 138 | – | 131
RPMI 5 mM glucose + 10% dialyzed FBS, 46.1 µM | 143 | – | 145

AUC of viability dose-response curve
Settings | NOMO1 [4] | P12-Ichikawa [5] | SEM cells [6]
HPLM + 10% dialyzed FBS | 463 | 468 | 467
RPMI 5 mM glucose + 10% FBS | 460 | 467 | 450
RPMI 5 mM glucose + 10% dialyzed FBS | 462 | 470 | 444
